Test results as given in patent US12636278B2, “HDAC6-inhibited human regulatory T cells” (H. LEE MOFFITT CANCER CENTER AND RESEARCH INSTITUTE, INC., priority 2020, dated 2026).
“Also recorded” adds a separate entry of the source.

Experiments:
[1] = tested on: NSG mice with human skin xenograft; experiment: Human skin xenograft rejection model with adoptive transfer of pre-treated Tregs; format: in vivo; conditions: day +21; 5x10^4 nTregs expanded ex vivo with drug (tubastatin 1 μM, HDTK032 2.5 μM); no systemic drug; compared to PBMCs alone
Method: NSG mice received a 1 cm^2 split thickness human skin graft. After 30 days of rest to permit engraftment, 5×10^6 human PBMCs (allogeneic to the skin) were injected into the mice. A week prior to PBMC injection, Tregs from the PBMC donor were expanded with mature DCs from the skin donor (Treg:DC ratio 30:1) and cultured for 5-6 days in the presence of DMSO (<0.1%), tubastatin (1 μM), HDTK032 (2.5 μM). In coordination with the PBMC injection, recipient mice were also inoculated with CD25-bead purified, Tregs (5×10^4) expanded with DMSO, tubastatin, HDTK032. A control group received PBMCs alone. FIG. 3A contains representative contour plots showing the purity (>95% pure) of the injected Tregs (CD4^+, CD127^−, CD25^bright, Foxp3+) for each experimental condition. […] Pooled data from 3 independent experiments, with up to 9 mice per experimental group. […]
FIGS. 5A to 5D show pathogenic Th17 cells are decreased in the periphery among mice treated with HDAC6-inhibited human Tregs. […] Recipient spleens were harvested on day +21, stained for Th17s (CD4^+, IL-17^+) or Tregs (CD4^+, CD127^−, CD25^bright, Foxp3^+), and analyzed by flow cytometry. […]
FIGS. 6A to 6C show circulating human Th1 cells are reduced after adoptive transfer of HDAC6-inhibited Tregs. […] Recipient spleens were harvested on day +21, stained for Th1s (CD4^+, IFNγ^+) or Th2s (CD4^+, IL-4^+), and analyzed by flow cytometry. […]

antigen-specific nTreg = experiment: Proliferation of antigen-specific nTreg with allogeneic DC, IL-2 and IL-15 (CPM, day +6); format: cell-based; conditions: drugs added once on day 0; CPM on day +6
Text: Purified nTreg+allogeneic dendritic cells (DC)+IL-2+IL-15. Drugs added once on day 0. Proliferation measured as CPM on day +6.

[2] = tested on: T cell responders stimulated by allogeneic DCs; experiment: Suppression assay of pre-treated nTregs in mixed leukocyte reactions; format: cell-based, human; conditions: nTregs exposed to drug for 5 days; nTreg:T cell ratio 1:500 or 1:50; no drug in secondary culture; compared to DMSO-treated nTregs
Method: The suppressive capacity of DC-allostimulated thymic Tregs previously exposed to HDTK032, tubastatin, or DMSO was tested at different ratios of Treg to T cell responders stimulated by fresh allogeneic DCs (DC:responder T cell ratio of 1:30) in mixed leukocyte reactions. No additional drugs or DMSO were added to the medium. […] Data are from one representative experiment of 3 independent studies performed.
Next we investigated whether HDAC6 blockade impacted nTreg function. Purified nTregs were stimulated with allogeneic moDCs plus IL-2 while exposed to tubastatin, HDTK032, or DMSO for 5 days. The nTregs were harvested and cultured with autologous T cells (nTreg:T cell ratio 1:500 or 1:50) targeting fresh allogeneic moDCs. No additional drugs were added to the secondary cultures.

autologous T responders = experiment: Suppression assay of treated antigen-specific nTreg with 10:1 autologous T responders and allogeneic DCs; format: cell-based; conditions: 10:1 autologous T responders; proliferation measured on day +6; compared to DMSO
Text: Suppression assay of DMSO- or HDAC-treated, antigen-specific nTreg in culture with 10:1 autologous T responders and allogeneic DCs. Proliferation measured on day +6. […] PAN=Panobinostat, NEXT=Nexturastat-B, TUBA=Tubastatin. DMSO is vehicle control.

allo-specific nTregs = experiment: Limiting dilution assay (LDA), frequency of allo-specific nTregs after 12 days with allogeneic moDCs; format: cell-based, human; conditions: for mean fold expansion of allo-specific nTregs: 12 days with unrelated moDCs, compared to DMSO; for frequency of antigen-specific thymic Tregs: after 12 days of culture with allogeneic moDCs
Method: (§1) FIG. 1A show purified, human Tregs stimulated by allogeneic, monocyte-derived dendritic cells for 5-6 days, with HDTK032 or DMSO added once on day 0. The medium was also supplemented with IL-2 and IL-15. […] Proliferation was analyzed by Cell Trace Violet dilution among CD4^+, CD127^−, CD25^bright Tregs. […] FIG. 1C is a graph showing on-target alpha-tubulin acetylation of HDTK032 or DMSO treated Tregs. One representative experiment of 3 independent studies is shown. […] One representative donor Treg expansion of 4 independent experiments is shown. *P<0.05.
(§2) HDAC6-deficient mice are known to generate increased amounts of Tregs, both at stead-state in vivo and after polyclonal stimulation in vitro. However, such findings have never been translated to human immunity. Human nTregs (CD4^+, CD127^−, CD25+) were purified by magnetic bead isolation, stimulated with allogeneic moDCs, supplemented with IL-2, and treated with HDTK032, a selective and potent HDAC6 inhibitor, or DMSO (<0.01%) vehicle control once on day 0. After 5-6 days of culture, the nTregs were harvested and enumerated. […] Using the limiting dilution assay (LDA) we measured the precise frequency of allo-specific nTregs after stimulation with unrelated moDCs for 12 days. For these experiments, the HDAC6 inhibitors, HDTK032 and tubastatin, were compared against DMSO. Overall, the mean fold expansion was approximately 130-fold with either HDAC6 inhibitor compared to DMSO (FIG. 1D).

HDAC6 = experiment: On-target alpha-tubulin acetylation in treated nTregs; format: cell-based, human; conditions: compared to DMSO
Method: as §1
as §2, with “Overall, the mean fold expansion was approximately 130-fold with either HDAC6 inhibitor compared to DMSO (FIG. 1D).” left out

[3] = tested on: human nTregs (CD4+, CD127-, CD25+); experiment: Treg proliferation and expansion after stimulation with allogeneic moDCs, 5-6 days; format: cell-based; conditions: drug added once on day 0, compared to DMSO
Method: as §1
as §2, with “Overall, the mean fold expansion was approximately 130-fold with either HDAC6 inhibitor compared to DMSO (FIG. 1D).” left out

Structure (SMILES)	skin graft rejection [1]	proliferation and expansion of antigen-specific nTreg (antigen-specific nTreg)	suppressive potency of pre-treated nTregs [2]	suppressive function of nTreg (autologous T responders)	mean fold expansion of allo-specific nTregs (allo-specific nTregs)	frequency of antigen-specific thymic Tregs (allo-specific nTregs)	amount of acetylated α-tubulin (HDAC6)	proliferative capacity of nTregs (CellTrace Violet dilution) ([3]; 5-6 days)	amount of nTregs ([3]; after 5-6 days of culture)
CN1CCc2c(c3ccccc3n2Cc2ccc(C(=O)NO)cc2)C1 [Tubastatin A, reference compound]	significantly reduced	significantly enhance	significantly more potent	significantly increase	approximately 130 fold	increase	–	–	–
CCCCN(Cc1ccc(C(=O)NO)cc1)C(=O)Nc1ccc2cn[nH]c2c1 [Nexturastat-B, Nexturastat B]	–	–	–	significantly increase	–	–	–	–	–
O=C(NO)c1ccc2c(c1)OC[C@H](c1ccccc1)N(C(=O)C1CCOCC1)C2 [HDTK032, (3S)—N-hydroxy-4-(oxane-4-carbonyl)-3-phenyl-2,3,4,5-tetrahydro-1,4-benzoxazepine-8-carboxamide]	significantly reduced	–	significantly more potent	–	approximately 130 fold	increase	increase	increased	significantly increased; also recorded: increases
